# Patent US20100143438A1, “BIOMOLECULES” (University of Strathclyde, priority 2006, published 2010)
# Test system: Fmoc-FRGD-PEGA surface tethered peptide (Fmoc-F↓RGD bond)
# Assay: Enzymatic hydrolysis of PEGA surface tethered peptides analysed by HPLC
# Assay type: biochemical
# Method: Three proteolytic enzymes, chymotrypsin, thermolysin and proteinase K, that are known to cleave peptide bonds involving F amino acids in the P1 position were tested for their ability to selectively hydrolyse Fmoc-F↓RGD bond^15. […] Surfaces were incubated at 37° C. for 2 hours in enzyme solution (concentrations and activities are shown in Table 1) in phosphate buffer and the cleaved products were analysed by HPLC.
# Surfaces were rinsed in a known volume (at least 4 ml) of a 50:50 mixture of acetonitrile (ACN) and water. The rinsing solution was kept and added to the enzyme solution that the surface was in. 1 ml of this solution was placed into an HPLC autosampler vial. The HPLC machine (manufactured by Dionex; California, USA) consisted of a P.680 HPLC pump joined to an ASI-100 Automated Sample Injector with a Dionex UVD17OU detector. The column was an EC 250/4.6 Nucleosil 100-5 C18, with an internal diameter of 4.6 mm and a column length of 250 mm containing particles of 5 μm in diameter. 100 μl was injected into the HPLC column at the start of each run and a buffer gradient run through the column, buffer A was 99.9% water and 0.1% TFA, buffer B was 99.9% ACN and 0.1% TFA. For quantification, three samples of each surface were produced and repeated three times.
# [1] = 37° C., 2 hours in enzyme solution, 100% = 4.08 nmol maximum Fmoc-peptide hydrolysed, n=9
substance,measurement,setting,value
Chymotrypsin,Fmoc-F-OH (%),[1],42 ± 1.8%
same,Fmoc-FR-OH (%),[1],7.5 ± 1.4%
same,cleavage and selectivity for Fmoc-F↓RGD versus Fmoc-FR↓GD,HPLC,performing best
